The source of these data is patent US20120184542A1, “PYRIDO PYRIMIDINES” (priority 2011, published 2012).

For one test, the target named is T1, Human DYRK1A (Homo sapiens, UniProt Q13627).
T1 construct: purchased Invitrogen PV3997
The experiment in a line: DYRK1A Kinase TR-FRET (IMAP-Tb) Assay. Conditions: TR-FRET (IMAP-Tb); ATP 70 μM; 37° C. 60 minutes; read-out: Enzyme IC50 (μM) DYRK1A. Type of test: biochemical. Put shortly:
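Recombinant human DYRK1A phosphorylated fluorescent substrate peptide (1.0 μM) with ATP in 10 mM HEPES pH 7.0, 50 mM NaCl, 5 mM MgCl2, 1 mM DTT, 1 mM NaVO4, 0.02% BSA for 60 min at 37 °C. Phosphopeptide detected by IMAP terbium TR-FRET; IC50 reported.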

Another test concerns the target T2, Human DYRK1B (Homo sapiens, UniProt Q9Y463).
T2 construct: purchased Invitrogen PR8350B (former PV4649)
The experiment in a line: DYRK1B Kinase TR-FRET (IMAP-Tb) Assay. The settings on record: TR-FRET (IMAP-Tb); ATP 70 μM; 37° C. 60 minutes; read-out: Enzyme IC50 (μM) DYRK1B. It counts as biochemical.

In test [1] the test system is SW620 human colon cancer cells. The experiment in a line: SW620 Cell Viability Assay. It counts as cell-based. Conditions: CellTiter-Glo, 4 days incubation, read-out: Cellular EC50 (μM) SW620. Put shortly:
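SW620 human colon cancer cells, some attached 24 h then serum-starved 48 h before dosing; compounds prepared in serum-supplemented medium. Cells incubated with compound 4 days at 37 °C, 5% CO2, and viability measured by CellTiter-Glo luminescence.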

Molecules are shown by their SMILES. Where a name gives a salt, the structure may show the parent alone. Read-outs that look alike come from different tables or passages of the source.

T2 sequence (Q9Y463 whole entry): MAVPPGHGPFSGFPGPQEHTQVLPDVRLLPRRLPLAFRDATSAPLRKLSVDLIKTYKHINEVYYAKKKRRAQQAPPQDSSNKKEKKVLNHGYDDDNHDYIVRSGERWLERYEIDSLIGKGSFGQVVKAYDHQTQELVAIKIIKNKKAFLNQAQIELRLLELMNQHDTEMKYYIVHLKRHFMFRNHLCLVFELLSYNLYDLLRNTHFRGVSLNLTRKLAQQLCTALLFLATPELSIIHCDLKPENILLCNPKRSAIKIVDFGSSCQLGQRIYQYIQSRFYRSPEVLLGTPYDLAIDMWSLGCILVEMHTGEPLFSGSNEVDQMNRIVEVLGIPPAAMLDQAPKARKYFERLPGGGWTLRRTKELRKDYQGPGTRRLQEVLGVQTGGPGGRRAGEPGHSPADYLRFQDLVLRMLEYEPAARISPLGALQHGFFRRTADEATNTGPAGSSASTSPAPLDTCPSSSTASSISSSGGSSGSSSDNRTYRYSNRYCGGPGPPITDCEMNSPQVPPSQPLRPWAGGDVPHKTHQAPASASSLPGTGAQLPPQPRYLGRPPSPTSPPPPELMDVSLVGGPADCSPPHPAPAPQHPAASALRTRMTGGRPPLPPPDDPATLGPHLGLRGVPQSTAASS

Regarding `O=C(NCc1cccc(Cl)c1)c1ccc(Cl)c(NC(=O)c2cc3cnc(N4CCOCC4)nc3[nH]c2=O)c1` [Example 86, 2-Morpholin-4-yl-7-oxo-7,8-dihydro-pyrido[2,3-d]pyrimidine-6-carboxylic acid [2-chloro-5-(3-chloro-benzylcarbamoyl)-phenyl]-amide], the concentration for half-maximal inhibition (IC50) is 0.07 µM on Human DYRK1A and 3.25 µM on Human DYRK1B. In addition, the concentration for a half-maximal effect (EC50) in test [1] (Homo sapiens, SW-620, 96 h) is more than 10 µM.
In the case of `CC(=O)N1CCN(c2ncc3cc(C(=O)Nc4cc(C(=O)NCc5cccc(Cl)c5)ccc4Cl)c(=O)[nH]c3n2)CC1` [Example 108, 2-(4-Acetylpiperazin-1-yl)-N-(2-chloro-5-(3-chlorobenzylcarbamoyl)phenyl)-7-oxo-7,8-dihydropyrido[2,3-d]pyrimidine-6-carboxamide], the results for the half-inhibitory concentration (IC50) on Human DYRK1A and at Human DYRK1B were 0.114 µM and 0.056 µM, respectively. Further, the EC50 in test [1] (Homo sapiens, SW-620, 96 h) is 0.528 µM.
On to `CN1CCC(CCNc2ncc3cc(C(=O)Nc4cc(C(=O)NCc5cccc(Cl)c5)ccc4Cl)c(=O)[nH]c3n2)CC1` [Example 104, N-(2-chloro-5-(3-chlorobenzylcarbamoyl)phenyl)-2-(2-(1-methylpiperidin-4-yl)ethylamino)-7-oxo-7,8-dihydropyrido[2,3-d]pyrimidine-6-carboxamide], for which the IC50 was 0.0226 µM on Human DYRK1A and 0.0613 µM at Human DYRK1B. The EC50 in test [1] (Homo sapiens, SW-620, 96 h) was determined as 0.0787 µM.
In the case of `NCCC(NC(=O)c1ccc(Cl)c(NC(=O)c2cc3cncnc3[nH]c2=O)c1)c1ccccc1` (stereo not drawn) [Example 152, N-(5-(3-Amino-1-phenylpropylcarbamoyl)-2-chlorophenyl)-7-oxo-7,8-dihydropyrido[2,3-d]pyrimidine-6-carboxamide hydrochloride], the concentration for half-maximal inhibition (IC50) amounted to 0.066 µM on Human DYRK1A and 0.033 µM at Human DYRK1B. The 50% effective concentration (EC50) in test [1] (Homo sapiens, SW-620, 96 h) came to 2.68 µM.
In the case of `O=C(NCc1cccc(Cl)c1)c1ccc(Cl)c(NC(=O)c2cc3cnc(N[C@H]4CC[C@H](O)CC4)nc3[nH]c2=O)c1` [Example 94, 2-(4-Hydroxy-cyclohexylamino)-7-oxo-7,8-dihydro-pyrido[2,3-d]pyrimidine-6-carboxylic acid [2-chloro-5-(3-chloro-benzylcarbamoyl)-phenyl]amide], the IC50 on Human DYRK1A is 0.0245 µM; on Human DYRK1B, 0.0622 µM. Also, the EC50 in test [1] (Homo sapiens, SW-620, 96 h) was 1.13 µM.
With `O=C(NCc1cccc(Cl)c1)c1ccc(Cl)c(NC(=O)c2cc3cnc(NCC(O)CO)nc3[nH]c2=O)c1` (stereo not drawn) [Example 126, N-(2-Chloro-5-(3-chlorobenzylcarbamoyl)phenyl)-2-(2,3-dihydroxypropylamino)-7-oxo-7,8-dihydropyrido[2,3-d]pyrimidine-6-carboxamide], the IC50 on Human DYRK1A came out at 0.0197 µM; on Human DYRK1B it was 0.059 µM. Moreover, in test [1] (Homo sapiens, SW-620, 96 h), the half-maximal effective concentration (EC50) was more than 10 µM.
`O=C(NCc1cccc(Cl)c1)c1ccc(Cl)c(NC(=O)c2cc3cnc(N4CCNCC4)nc3[nH]c2=O)c1` [Example 119, N-(2-Chloro-5-(3-chlorobenzylcarbamoyl)phenyl)-7-oxo-2-(piperazin-1-yl)-7,8-dihydropyrido[2,3-d]pyrimidine-6-carboxamide hydrochloride]: the IC50 on Human DYRK1A was 0.044 µM; at Human DYRK1B, 0.135 µM. In addition, the EC50 in test [1] (Homo sapiens, SW-620, 96 h) turned out to be 0.152 µM.
As for `CN1CCN(CCCNc2ncc3cc(C(=O)Nc4cc(C(=O)NCc5cccc(Cl)c5)ccc4Cl)c(=O)[nH]c3n2)CC1` [Example 102, 2-[3-(4-Methyl-piperazin-1-yl)-propylamino]-7-oxo-7,8-dihydro-pyrido[2,3-d]pyrimidine-6-carboxylic acid [2-chloro-5-(3-chloro-benzylcarbamoyl)-phenyl]-amide hydrochloride], the results for the 50% inhibitory concentration (IC50) at Human DYRK1A and at Human DYRK1B were 0.0356 µM and 0.047 µM, respectively. Besides, the concentration giving a half-maximal response (EC50) in test [1] (hydrochloride) stood at 0.0531 µM.
Take `O=C(NCc1cccc(Cl)c1)c1ccc(Cl)c(NC(=O)c2cc3cnc(N[C@H]4CC[C@@H](O)CC4)nc3[nH]c2=O)c1` [Example 95, 2-(4-Hydroxy-cyclohexylamino)-7-oxo-7,8-dihydro-pyrido[2,3-d]pyrimidine-6-carboxylic acid [2-chloro-5-(3-chloro-benzylcarbamoyl)-phenyl]amide]: the half-inhibitory concentration (IC50) on Human DYRK1A is 0.0257 µM; at Human DYRK1B it was 0.012 µM. For the same molecule, in test [1] (Homo sapiens, SW-620, 96 h), the EC50 was found to be 0.406 µM.
Turning to `NCC(NC(=O)c1ccc(Cl)c(NC(=O)c2cc3cncnc3[nH]c2=O)c1)c1ccccc1` (stereo not drawn) [Example 151, N-(5-(2-Amino-1-phenylethylcarbamoyl)-2-chlorophenyl)-7-oxo-7,8-dihydropyrido[2,3-d]pyrimidine-6-carboxamide hydrochloride], the 50% inhibitory concentration (IC50) turned out to be 0.061 µM on Human DYRK1A and 0.096 µM at Human DYRK1B. For the same molecule, the concentration for a half-maximal effect (EC50) in test [1] (Homo sapiens, SW-620, 96 h) came out at 4.26 µM.
Turning to `O=C(NCc1cccc(Cl)c1)c1ccc(Cl)c(NC(=O)c2cc3cnc(OCCCN4CCOCC4)nc3[nH]c2=O)c1` [Example 80, 2-(3-Morpholin-4-yl-propoxy)-7-oxo-7,8-dihydro-pyrido[2,3-d]pyrimidine-6-carboxylic acid [2-chloro-5-(3-chloro-benzylcarbamoyl)-phenyl]-amide], the figures for the IC50 on Human DYRK1A and at Human DYRK1B were 0.0046 µM and 0.231 µM, respectively. The concentration for a half-maximal effect (EC50) in test [1] (Homo sapiens, SW-620, 96 h) was determined as 0.325 µM.
Turning to `COc1ncc2cc(C(=O)Nc3cc(C(=O)N[C@@H](CN)c4cccc(Cl)c4)ccc3Cl)c(=O)[nH]c2n1` [Example 134, 2-Methoxy-7-oxo-7,8-dihydro-pyrido[2,3-d]pyrimidine-6-carboxylic acid {5-[(R)-2-amino-1-(3-chloro-phenyl)-ethylcarbamoyl]-2-chloro-phenyl}-amide], the values for the 50% inhibitory concentration (IC50) at Human DYRK1A and at Human DYRK1B were 0.481 µM and 1.98 µM, respectively. For the same molecule, the EC50 in test [1] (Homo sapiens, SW-620, 96 h) worked out at 7.57 µM.
Take `CSc1ncc2cc(C(=O)Nc3cc(C(=O)NCc4cccc(Cl)c4)ccc3Cl)c(=O)[nH]c2n1` [Example 74, 2-Methylsulfanyl-7-oxo-7,8-dihydro-pyrido[2,3-d]pyrimidine-6-carboxylic acid [2-chloro-5-(3-chloro-benzylcarbamoyl)-phenyl]-amide]: the results for the IC50 at Human DYRK1A and at Human DYRK1B were 0.0256 µM and 0.0553 µM, respectively. The 50% effective concentration (EC50) in test [1] (Homo sapiens, SW-620, 96 h) stood at 1.07 µM.
The like results for `NCCC(NC(=O)c1cc(NC(=O)c2cc3cnc(N4CCOCC4)nc3[nH]c2=O)c(Cl)cc1F)c1cccc(Cl)c1` (stereo not drawn) [Example 160, 2-Morpholin-4-yl-7-oxo-7,8-dihydro-pyrido[2,3-d]pyrimidine-6-carboxylic acid {5-[3-amino-1-(3-chloro-phenyl)-propylcarbamoyl]-2-chloro-4-fluoro-phenyl}-amide] were, in that order, 0.0532 µM, 0.0932 µM and 0.219 µM.
The like results for `COc1ncc2cc(C(=O)Nc3cc(C(=O)NCc4cccc(Cl)c4)ccc3Cl)c(=O)[nH]c2n1` [Example 54, 2-Methoxy-7-oxo-7,8-dihydro-pyrido[2,3-d]pyrimidine-6-carboxylic acid [2-chloro-5-(3-chloro-benzylcarbamoyl)-phenyl]-amide] were, in that order, 0.0215 µM, 0.0677 µM and 1.93 µM.
In the case of `O=C(NCc1cccc(Cl)c1)c1ccc(Cl)c(NC(=O)c2cc3cnc(OCCN4CCOCC4)nc3[nH]c2=O)c1` [Example 81, 2-(2-Morpholin-4-yl-ethoxy)-7-oxo-7,8-dihydro-pyrido[2,3-d]pyrimidine-6-carboxylic acid [2-chloro-5-(3-chloro-benzylcarbamoyl)-phenyl]-amide], the values for the half-maximal inhibitory concentration (IC50) on Human DYRK1A and on Human DYRK1B were 0.0313 µM and 0.128 µM, respectively. Moreover, in test [1] (Homo sapiens, SW-620, 96 h), the concentration for a half-maximal effect (EC50) turned out to be 0.651 µM.
The like results for `COC(=O)c1ccc(Cl)c(NC(=O)c2cc3cnc(N(CCO)CCO)nc3[nH]c2=O)c1` [Example 39, 3-({2-[Bis-(2-hydroxy-ethyl)-amino]-7-oxo-7,8-dihydro-pyrido[2,3-d]pyrimidine-6-carbonyl}-amino)-4-chloro-benzoic acid methyl ester] were, in that order, 0.0128 µM, 0.0248 µM and 2.29 µM.
As for `C[C@@H](NC(=O)c1ccc(Cl)c(NC(=O)c2cc3cnc(N4CCN(C)CC4)nc3[nH]c2=O)c1)c1ccccc1` [Example 174, 2-(4-Methyl-piperazin-1-yl)-7-oxo-7,8-dihydro-pyrido[2,3-d]pyrimidine-6-carboxylic acid [2-chloro-5-((R)-1-phenyl-ethylcarbamoyl)-phenyl]-amide], the figures for the IC50 at Human DYRK1A and on Human DYRK1B were 0.0873 µM and 0.207 µM, respectively. Also, the EC50 in test [1] (Homo sapiens, SW-620, 96 h) turned out to be 0.512 µM.
`CC(C)(O)CNc1ncc2cc(C(=O)Nc3cc(C(=O)NCc4cccc(Cl)c4)ccc3Cl)c(=O)[nH]c2n1` [Example 127, N-(2-Chloro-5-(3-chlorobenzylcarbamoyl)phenyl)-2-(2-hydroxy-2-methylpropylamino)-7-oxo-7,8-dihydropyrido[2,3-d]pyrimidine-6-carboxamide]: the IC50 came to 0.0223 µM on Human DYRK1A and 0.086 µM at Human DYRK1B. Moreover, the EC50 in test [1] (Homo sapiens, SW-620, 96 h) turned out to be 0.165 µM.
For the molecule `CN1CCN(CCCNc2ncc3cc(C(=O)Nc4cc(C(=O)NCc5cccc(Cl)c5)ccc4Cl)c(=O)[nH]c3n2)CC1` [Example 101, 2-[3-(4-Methyl-piperazin-1-yl)-propylamino]-7-oxo-7,8-dihydro-pyrido[2,3-d]pyrimidine-6-carboxylic acid [2-chloro-5-(3-chloro-benzylcarbamoyl)-phenyl]amide], the IC50 on Human DYRK1A stood at 0.0263 µM; on Human DYRK1B, 0.0221 µM. Further, the EC50 in test [1] (Homo sapiens, SW-620, 96 h) came out at 0.0663 µM.
